Assay [1] concerns the target DNAse I. To be noted: previously reported values (Jang et al., J. Biomol. Screen. 2015); cited from earlier work.
The target of assay [2] is DNAse I. As to the kind of experiment: DNAse I inhibitor assay based on NIR emission of 4/QIII ensemble. Conditions: [4]=4 μM, [QIII]=8 μM, [DNAse I]=4 U/ml, NIR emission at 785 nm; read-out: IC50 (DNAse I inhibition). Format: biochemical. How it is done:
General Procedure for Multiwell DNAse I Assay. A reaction mixture (total volume of 100 μL) containing 4 (4 μM) and QIII (8 μM) was prepared in 9:1 Tris buffer (10 mM Tris-HCl, 0.25 mM MgCl2, 0.1 mM CaCl2, pH 7.5):DMSO. Tris buffer was prepared using nuclease-free water. The reaction mixtures were prepared in white 96-well plates (Costar, Corning, NY) and incubated at room temperature for 2 min. Varying concentrations of DNAse I prepared in Tris buffer (10 mM Tris-HCl, 0.25 mM MgCl2, 0.1 mM CaCl2, pH 7.5) were added to the reaction mixture and incubated at room temperature for 10 min. Fluorescence spectra were obtained using Agilent Cary Eclipse fluorescence spectrophotometer, λex=445 nm. NIR emission intensity at 785 nm was detected.
Determination of IC50 Values of DNAse I Inhibitors. DNAse I assay was performed as previously described in the presence of DNAse I (4 U) and various concentrations of the inhibitor. Stock solutions of the inhibitors were prepared in Tris buffer (10 mM Tris-HCl, pH 7.5). The IC50 values were calculated by plotting log[inhibitor] versus NIR emission intensity of 4. The dose-response curves were analyzed by nonlinear regression using GraphPad Prism 8.0 (GraphPad Software, Inc., La Jolla, CA, USA).

Counter-ions that a name gives are not always drawn. Like-named read-outs stand apart in the source and are kept apart here.

Usually IC50 stands for the concentration that inhibits the measured activity by half.

With `O=C(O)CN(CCN(CC(=O)O)CC(=O)O)CC(=O)O` [EDTA], the concentration for half-maximal inhibition (IC50) at DNAse I [1] is 190 µM; at DNAse I [2], 202 µM.
On to `N=C(N)NNc1ccc(NNC(=N)N)cc1` [JR-132, 1,4-phenylene-bis-aminoguanidine hydrochloride], for which the IC50 was 2.73 µM at DNAse I [1] and 2.29 µM on DNAse I [2].
For the molecule `[Cl-].[Cl-].[Zn+2]` [ZnCl2], the concentration for half-maximal inhibition (IC50) on DNAse I [1] was 18 µM; on DNAse I [2] it was 20.7 µM.

(Values after patent US11851447B2, “Dinuclear platinum(II) compounds and methods of use thereof” (UNIVERSITY OF IOWA RESEARCH FOUNDATION, priority 2019, dated 2023).)
